Target: T1, Human full length PKD1 (Homo sapiens, UniProt Q15139)
T1 construct: Human full length PKD1 at ˜100 μg/mL purchased from Upstate Ltd; purchased Upstate Ltd 14-508
T1 sequence (Q15139 1-912): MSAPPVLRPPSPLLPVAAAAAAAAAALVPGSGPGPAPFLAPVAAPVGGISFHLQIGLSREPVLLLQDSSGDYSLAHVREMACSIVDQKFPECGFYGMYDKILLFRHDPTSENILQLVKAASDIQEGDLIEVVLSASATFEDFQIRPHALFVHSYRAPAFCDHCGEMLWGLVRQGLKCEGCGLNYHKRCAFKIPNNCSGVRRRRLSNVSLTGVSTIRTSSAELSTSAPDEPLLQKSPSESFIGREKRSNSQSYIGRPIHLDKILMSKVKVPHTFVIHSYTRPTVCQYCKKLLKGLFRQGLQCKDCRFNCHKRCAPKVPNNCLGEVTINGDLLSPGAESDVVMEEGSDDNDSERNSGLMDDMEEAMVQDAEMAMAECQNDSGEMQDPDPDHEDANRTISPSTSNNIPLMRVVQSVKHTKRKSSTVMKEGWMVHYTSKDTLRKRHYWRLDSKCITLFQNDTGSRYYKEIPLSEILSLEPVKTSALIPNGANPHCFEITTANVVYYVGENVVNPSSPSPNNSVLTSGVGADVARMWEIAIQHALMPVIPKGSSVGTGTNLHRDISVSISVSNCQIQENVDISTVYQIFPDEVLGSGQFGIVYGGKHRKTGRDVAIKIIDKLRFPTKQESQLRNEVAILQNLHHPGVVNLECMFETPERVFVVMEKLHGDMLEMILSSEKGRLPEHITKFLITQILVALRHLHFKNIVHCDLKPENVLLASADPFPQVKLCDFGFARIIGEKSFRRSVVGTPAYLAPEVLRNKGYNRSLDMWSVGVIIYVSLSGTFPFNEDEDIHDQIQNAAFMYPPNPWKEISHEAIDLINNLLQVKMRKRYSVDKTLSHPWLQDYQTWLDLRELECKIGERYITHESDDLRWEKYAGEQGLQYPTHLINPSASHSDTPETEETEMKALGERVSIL
Assay: PKD1 (Human Full Length) Enzyme Activity Assay (IMAP fluorescence polarisation)
Format: biochemical
Details: 10 μM ATP, 25 minutes, room temperature
Method: Kinase Assay Reaction Buffer: This consisted of 0.22 μM filtered 25 mM HEPES and 2 mM MgCl2 pH 7.5.
Kinase Enzyme: Human full length PKD1 at ˜100 μg/mL purchased from Upstate Ltd (Product code 14-508) was obtained from aliquots stored at −70° C. It was prepared with a final concentration of 0.3 μg/mL by diluting 1:300 in Reaction Buffer (30 μL per 9 mL-5 mL per plate with an additional 4 mL dead volume) and vortexing prior to use.
Substrate: Fluorescein labelled glycogen synthase-derived peptide (FI)-KKLNRTLSVA (also known as MAPKAP K2 substrate) was obtained from Molecular Devices (Product code R7127). […]
The fluorescence polarisation of the substrate in each well was recorded using an analyst microplate reader (Molecular Devices) with a single read at Ex485 Em535 (Analyst settings: Z Height 5 mm, G Factor 0.95, Reads/well 1, Integration 100000 μs, Gain Sensitivity 2).
Percentage inhibition was calculated based on activity of the test sample minus the average values in the blank wells relative to the average values measured in control wells minus the average values in the blank wells.
IC50 values were calculated from 10 point dose sigmoid ‘dose-response’ curves using Xlfit software (IDBS inc, USA). […]

Row | IC50 | Compound
1 | 4 nM | COc1cc(-c2nc(-c3cccc(C(=O)NCCN(C)C)c3)cnc2N)ccc1O [X-017, 3-[5-Amino-6-(4-hydroxy-3-methoxy-phenyl)-pyrazin-2-yl]-N-(2-dimethylamino-ethyl)-benzamide]
2 | 6 nM | COc1cc(-c2cc(-c3cccc(C(=O)NCCN(C)C)c3)cnc2N)ccc1O [Y-059, 3-[6-Amino-5-(4-hydroxy-3-methoxy-phenyl)-pyridin-3-yl]-N-(2-dimethylamino-ethyl)-benzamide]

Source: patent US20110098325A1, “PYRIDINE BENZAMIDES AND PYRAZINE BENZAMIDES USED AS PKD INHIBITORS” (CANCER RESEARCH TECHNOLOGY LIMITED, priority 2006, published 2011)
